The results in this text go back to the supplement of paper PMC10307832.

Holding throughout (assay): relative viability (nuclei count vs DMSO), 5 days (fraction); higher = more cells survive
Compound in the test “Axitinib + OSI-027”: CNC(=O)c1ccccc1Sc1ccc2c(/C=C/c3ccccn3)n[nH]c2c1 [Axitinib] + COc1cccc2cc(-c3nc([C@H]4CC[C@H](C(=O)O)CC4)n4ncnc(N)c34)[nH]c12 [OSI-027] (partner 0.5 µM)
The method in brief:
(§1)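 One day after seeding in 1536-well plates, lung cancer cell lines were dosed by pin tool. Dosing was either single-drug or a fixed anchor-drug dose plus five library-drug doses (not always all listed) in √10 steps. After 5 days, nuclei were stained in one fix-and-stain step and counted on 4× images, and relative viability is the nuclei count of treated wells over that of vehicle wells, given as the median of duplicate plates.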

Compound in test [1]: CC1=CC=C(C=C1)C(=O)CN2C3=C(CCCC3)SC2=N [Pifithrin_alpha] + Cc1cc(Nc2cc(N3CCN(C)CC3)nc(Sc3ccc(NC(=O)C4CC4)cc3)n2)n[nH]1 [Tozasertib] (partner 0.1 µM)
In outline: as §1

Compound in the test “Bemcentinib + Pictilisib”: Nc1nc(Nc2ccc3c(c2)CC[C@@H](N2CCCC2)CC3)nn1-c1cc2c(nn1)-c1ccccc1CCC2 [Bemcentinib] + CS(=O)(=O)N1CCN(Cc2cc3nc(-c4cccc5[nH]ncc45)nc(N4CCOCC4)c3s2)CC1 [Pictilisib] (partner 1 µM)
In outline: as §1

Compound in the test “Bemcentinib + Vorinostat”: Nc1nc(Nc2ccc3c(c2)CC[C@@H](N2CCCC2)CC3)nn1-c1cc2c(nn1)-c1ccccc1CCC2 [Bemcentinib] + O=C(CCCCCCC(=O)Nc1ccccc1)NO [Vorinostat] (partner 1 µM)
The method in brief: as §1

Turning to 201T, the relative viability with Axitinib + OSI-027 (first compound 0.005 µM) is 0.735; with Axitinib + OSI-027 (first compound 0.01581 µM), 0.675; in the test with Axitinib + OSI-027 (first compound 0.05 µM) it was 0.502; with Axitinib + OSI-027 (first compound 0.1581 µM), 0.706; with Axitinib + OSI-027 (first compound 0.5 µM) it was 0.679; in test [1] (first compound 1 µM), 0.991. Further, the relative viability was determined as 0.679 in test [1] (first compound 3.162 µM); 0.729 in test [1] (first compound 10 µM); 0.57 in test [1] (first compound 31.62 µM); 0.638 in test [1] (first compound 100 µM); 0.689 in the test with Bemcentinib + Pictilisib (first compound 0.04 µM); 0.694 in the test with Bemcentinib + Pictilisib (first compound 0.1265 µM). Besides, the relative viability was found to be 0.763 with Bemcentinib + Pictilisib (first compound 0.4 µM); 0.712 in the test with Bemcentinib + Pictilisib (first compound 1.265 µM); 0.748 with Bemcentinib + Pictilisib (first compound 4 µM); 0.962 with Bemcentinib + Vorinostat (first compound 0.04 µM); 0.981 with Bemcentinib + Vorinostat (first compound 0.1265 µM); 1.04 with Bemcentinib + Vorinostat (first compound 0.4 µM). The relative viability with Bemcentinib + Vorinostat (first compound 1.265 µM) stood at 0.938; with Bemcentinib + Vorinostat (first compound 4 µM) it was 1.06.
In the case of A549, the relative viability with Bemcentinib + Pictilisib (first compound 0.04 µM) was determined as 0.524; with Bemcentinib + Pictilisib (first compound 0.1265 µM), 0.445; with Bemcentinib + Pictilisib (first compound 0.4 µM), 0.579; in the test with Bemcentinib + Pictilisib (first compound 1.265 µM), 0.534; with Bemcentinib + Pictilisib (first compound 4 µM) it was 0.494.
Regarding A-427, the relative viability came to 0.422 with Axitinib + OSI-027 (first compound 0.005 µM); 0.329 with Axitinib + OSI-027 (first compound 0.01581 µM); 0.442 in the test with Axitinib + OSI-027 (first compound 0.05 µM); 0.434 with Axitinib + OSI-027 (first compound 0.1581 µM); 0.486 in the test with Axitinib + OSI-027 (first compound 0.5 µM); 0.202 in test [1] (first compound 1 µM). In addition, the relative viability in test [1] (first compound 3.162 µM) was 0.18; in test [1] (first compound 10 µM), 0.183; in test [1] (first compound 31.62 µM), 0.203; in test [1] (first compound 100 µM), 0.2; with Bemcentinib + Pictilisib (first compound 0.1265 µM), 0.752; in the test with Bemcentinib + Pictilisib (first compound 0.4 µM) it was 0.723. Also, the relative viability with Bemcentinib + Pictilisib (first compound 1.265 µM) amounted to 0.635; in the test with Bemcentinib + Pictilisib (first compound 4 µM) it was 0.663; in the test with Bemcentinib + Vorinostat (first compound 0.04 µM), 0.841; with Bemcentinib + Vorinostat (first compound 0.1265 µM) it was 0.896; in the test with Bemcentinib + Vorinostat (first compound 0.4 µM), 0.867; with Bemcentinib + Vorinostat (first compound 1.265 µM), 0.836. The relative viability with Bemcentinib + Vorinostat (first compound 4 µM) was found to be 0.82.
For the cell line ABC-1, the relative viability with Axitinib + OSI-027 (first compound 0.005 µM) was determined as 0.597; in the test with Axitinib + OSI-027 (first compound 0.01581 µM) it was 0.436; with Axitinib + OSI-027 (first compound 0.05 µM), 0.482; in the test with Axitinib + OSI-027 (first compound 0.1581 µM), 0.456; with Axitinib + OSI-027 (first compound 0.5 µM) it was 0.448; in test [1] (first compound 1 µM) it was 0.204. Also, the relative viability in test [1] (first compound 3.162 µM) came out at 0.167; in test [1] (first compound 10 µM) it was 0.188; in test [1] (first compound 31.62 µM), 0.229; in test [1] (first compound 100 µM), 0.173; with Bemcentinib + Pictilisib (first compound 0.04 µM) it was 0.688; with Bemcentinib + Pictilisib (first compound 0.1265 µM) it was 0.736. Moreover, the relative viability with Bemcentinib + Pictilisib (first compound 0.4 µM) was 0.731; with Bemcentinib + Pictilisib (first compound 1.265 µM) it was 0.77; with Bemcentinib + Pictilisib (first compound 4 µM) it was 0.955; with Bemcentinib + Vorinostat (first compound 0.04 µM), 1.01; with Bemcentinib + Vorinostat (first compound 0.1265 µM), 1.1; in the test with Bemcentinib + Vorinostat (first compound 0.4 µM) it was 1.11. Also, the relative viability amounted to 0.856 with Bemcentinib + Vorinostat (first compound 1.265 µM) and 0.892 in the test with Bemcentinib + Vorinostat (first compound 4 µM).
On to BEN, for which the relative viability with Axitinib + OSI-027 (first compound 0.005 µM) came to 0.3; in the test with Axitinib + OSI-027 (first compound 0.01581 µM), 0.287; with Axitinib + OSI-027 (first compound 0.05 µM), 0.3; in the test with Axitinib + OSI-027 (first compound 0.1581 µM), 0.286; in the test with Axitinib + OSI-027 (first compound 0.5 µM), 0.342; in test [1] (first compound 3.162 µM) it was 0.684. Moreover, the relative viability in test [1] (first compound 10 µM) amounted to 0.534; in test [1] (first compound 31.62 µM), 0.443; in test [1] (first compound 100 µM) it was 0.514; with Bemcentinib + Pictilisib (first compound 0.04 µM), 0.551; in the test with Bemcentinib + Pictilisib (first compound 0.1265 µM), 0.6; in the test with Bemcentinib + Pictilisib (first compound 0.4 µM), 0.631. Also, the relative viability in the test with Bemcentinib + Pictilisib (first compound 1.265 µM) is 0.564; with Bemcentinib + Pictilisib (first compound 4 µM), 0.591; with Bemcentinib + Vorinostat (first compound 0.04 µM), 0.567; in the test with Bemcentinib + Vorinostat (first compound 0.1265 µM) it was 0.627; with Bemcentinib + Vorinostat (first compound 0.4 µM) it was 0.562; with Bemcentinib + Vorinostat (first compound 1.265 µM) it was 0.56. The relative viability in the test with Bemcentinib + Vorinostat (first compound 4 µM) was found to be 0.6.
With CAL-12T, the relative viability with Axitinib + OSI-027 (first compound 0.005 µM) worked out at 0.847; with Axitinib + OSI-027 (first compound 0.01581 µM), 0.684; with Axitinib + OSI-027 (first compound 0.05 µM) it was 0.728; with Axitinib + OSI-027 (first compound 0.1581 µM), 0.597; in the test with Axitinib + OSI-027 (first compound 0.5 µM) it was 0.634; in test [1] (first compound 1 µM), 0.348. In addition, the relative viability in test [1] (first compound 3.162 µM) was found to be 0.22; in test [1] (first compound 10 µM), 0.234; in test [1] (first compound 100 µM), 0.226; in the test with Bemcentinib + Pictilisib (first compound 0.04 µM), 0.302; with Bemcentinib + Pictilisib (first compound 0.1265 µM), 0.569; in the test with Bemcentinib + Pictilisib (first compound 0.4 µM), 0.532. Moreover, the relative viability with Bemcentinib + Pictilisib (first compound 1.265 µM) is 0.347; in the test with Bemcentinib + Pictilisib (first compound 4 µM), 0.364; in the test with Bemcentinib + Vorinostat (first compound 0.04 µM) it was 0.907; with Bemcentinib + Vorinostat (first compound 0.1265 µM), 1; in the test with Bemcentinib + Vorinostat (first compound 0.4 µM) it was 0.824; with Bemcentinib + Vorinostat (first compound 1.265 µM), 0.762. In addition, in the test with Bemcentinib + Vorinostat (first compound 4 µM), the relative viability was found to be 0.831.
Take COR-L23: the relative viability with Axitinib + OSI-027 (first compound 0.005 µM) is 0.88; with Axitinib + OSI-027 (first compound 0.01581 µM), 0.775; with Axitinib + OSI-027 (first compound 0.05 µM) it was 0.804; in the test with Axitinib + OSI-027 (first compound 0.1581 µM), 0.75; with Axitinib + OSI-027 (first compound 0.5 µM), 1.19; in test [1] (first compound 1 µM) it was 0.168. Moreover, the relative viability came out at 0.15 in test [1] (first compound 3.162 µM); 0.152 in test [1] (first compound 10 µM); 0.13 in test [1] (first compound 100 µM); 0.843 with Bemcentinib + Pictilisib (first compound 0.04 µM); 0.978 in the test with Bemcentinib + Pictilisib (first compound 0.1265 µM); 1.03 with Bemcentinib + Pictilisib (first compound 0.4 µM). In addition, the relative viability was 0.953 in the test with Bemcentinib + Pictilisib (first compound 1.265 µM); 0.927 with Bemcentinib + Pictilisib (first compound 4 µM); 0.468 with Bemcentinib + Vorinostat (first compound 0.04 µM); 0.47 in the test with Bemcentinib + Vorinostat (first compound 0.1265 µM); 0.522 in the test with Bemcentinib + Vorinostat (first compound 0.4 µM); 0.477 with Bemcentinib + Vorinostat (first compound 1.265 µM). In addition, the relative viability with Bemcentinib + Vorinostat (first compound 4 µM) worked out at 0.521.
Regarding COR-L 105, the relative viability with Axitinib + OSI-027 (first compound 0.005 µM) worked out at 0.762; in the test with Axitinib + OSI-027 (first compound 0.01581 µM), 0.509; with Axitinib + OSI-027 (first compound 0.05 µM), 0.681; in the test with Axitinib + OSI-027 (first compound 0.1581 µM), 0.722; with Axitinib + OSI-027 (first compound 0.5 µM), 0.725; in test [1] (first compound 1 µM), 0.346. The relative viability was found to be 0.358 in test [1] (first compound 3.162 µM); 0.368 in test [1] (first compound 10 µM); 0.31 in test [1] (first compound 31.62 µM); 0.316 in test [1] (first compound 100 µM); 0.292 with Bemcentinib + Pictilisib (first compound 0.04 µM); 0.43 with Bemcentinib + Pictilisib (first compound 0.1265 µM). The relative viability was determined as 0.408 in the test with Bemcentinib + Pictilisib (first compound 0.4 µM); 0.378 in the test with Bemcentinib + Pictilisib (first compound 1.265 µM); 0.387 in the test with Bemcentinib + Pictilisib (first compound 4 µM); 0.751 in the test with Bemcentinib + Vorinostat (first compound 0.04 µM); 0.985 with Bemcentinib + Vorinostat (first compound 0.1265 µM); 0.918 with Bemcentinib + Vorinostat (first compound 0.4 µM). Also, the relative viability stood at 0.933 with Bemcentinib + Vorinostat (first compound 1.265 µM) and 0.826 in the test with Bemcentinib + Vorinostat (first compound 4 µM).
With Calu-6, the relative viability in the test with Bemcentinib + Pictilisib (first compound 0.04 µM) was 0.917; with Bemcentinib + Pictilisib (first compound 0.1265 µM), 1.15; in the test with Bemcentinib + Pictilisib (first compound 0.4 µM), 1.1; with Bemcentinib + Pictilisib (first compound 1.265 µM), 0.953; with Bemcentinib + Pictilisib (first compound 4 µM), 1.03.
